Activity calls are given as the source filed them. The calls are words filed in the database; no cut-off is given here.
Tests used:
K562 [1] = assay: Induction of apoptosis in human K562 cells assessed as appearance of apoptotic bodies at 0.25 uM after 24 to 48 hrs by TUNEL assay; type: functional, cell-based
K562 [2] = assay: Induction of cell cycle arrest in human K562 cells assessed as complete arrest at G2/M phase at 0.25 uM after 12 hrs by propidium iodide staining-based FACS analysis; type: functional
K562 [3] = assay: Induction of apoptosis in human K562 cells assessed as chromatin condensation at 0.25 uM after 24 to 48 hrs by TUNEL assay; type: functional, cell-based
K562 [4] = assay: Induction of cell cycle arrest in human K562 cells assessed as accumulation at G2/M phase at 0.25 uM after 6 hrs by propidium iodide staining-based FACS analysis; type: functional
K562 [5] = assay: Ratio of IC50 for human PMBC to IC50 for human K562 cells
K562 [6] = assay: Induction of apoptosis in human K562 cells assessed as increase in effector caspases activity using Ac-DEVD-AMC as substrate after 3 to 24 hrs by fluorimetry; type: functional, cell-based
K562 [7] = assay: Cell cycle arrest in human K562 cells assessed as accumulation at G2/M phase at 7.8 uM after 6 hrs by propidium iodide staining-based FACS analysis; type: functional
K562 [8] = assay: Induction of apoptosis in human K562 cells assessed as subdiploid peak at 7.8 uM after 12 to 24 hrs by propidium iodide staining-based FACS analysis; type: functional, cell-based
K562 [9] = assay: Induction of apoptosis in human K562 cells assessed as effector caspases activity using Ac-DEVD-AMC as substrate after 48 hrs by fluorimetry; type: functional, cell-based
K562 [10] = assay: Induction of apoptosis in human K562 cells assessed as DNA fragmentation at 7.8 uM after 12 to 24 hrs by TUNEL assay; type: functional, cell-based
K562 [11] = assay: Induction of apoptosis in human K562 cells assessed as chromatin condensation at 7.8 uM after 12 to 24 hrs by TUNEL assay; type: functional, cell-based
[12] = Cytotoxicity against human PMBC after 48 hrs by modified MTT assay
K562 [13] = assay: Cytotoxicity against human K562 cells after 48 hrs by modified MTT assay; type: functional, cell-based; details: K562, 48 h

Structure (SMILES)	Activity (K562 [1])	Activity (K562 [2])	Activity (K562 [3])	Activity (K562 [4])	Ratio IC50 (K562 [5])	Activity (K562 [6])	Activity (K562 [7])	Activity (K562 [8])	Activity (K562 [9])	Activity (K562 [10])	Activity (K562 [11])	IC50 [12]	IC50 (K562 [13])
CC(=O)O[C@H]1C(=O)[C@@]2(C)[C@H]([C@H](OC(=O)c3ccccc3)[C@]3(O)C[C@H](OC(=O)[C@H](O)[C@@H](NC(=O)c4ccccc4)c4ccccc4)C(C)=C1C3(C)C)[C@]1(OC(C)=O)CO[C@@H]1C[C@@H]2O	Active	Active	Active	Active	–	–	–	–	–	–	–	–	–
CCN(CC)CCCNc1nc2c(Nc3cccc(Cl)c3)c3ccccc3nc2s1	–	–	–	–	4	Active	Active	Active	inactive	Active	Active	28.7 µM	7.82 µM

Reference: ChEMBL document CHEMBL1800021, “Antineoplastic activity of the thiazolo[5,4-b]quinoline derivative D3CLP in K-562 cells is mediated through effector caspases activation” (Eur J Med Chem, 2011)
